Reference: US20120196791A1, “COMBINATION THERAPIES USING ANTIBACTERIAL AMINOGLYCOSIDE COMPOUNDS” (Achaogen, Inc., priority 2009, published 2012)
Like-named read-outs stand apart in the source and are kept apart here.

Key:
Format in all cases: cell-based
S. aureus strains = assay: MIC by macrodilution
Source text: (§1) “MIC”, which stands for minimum inhibitory concentration, refers to that concentration, in μg/mL, of a compound of this invention that inhibits the growth and/or proliferation of a strain of bacteria by at least 80% compared to an untreated control as determined by visual inspection of a liquid culture.
Synergy time-kill was used to test the activity of Example 1, alone and in combination with daptomycin (DAP), ceftobiprole (BPR), and linezolid (LZD), against 25 S. aureus strains. 25 clinical isolates included 2 hVISA, 2 VISA, and 5 VRSA, 10 hospital acquired and 6 community acquired MRSA strains. MICs were determined by macrodilution and time-kill was used to verify the activity of all four agents alone. MICs were predetermined by macrodilution in cation-adjusted Mueller-Hinton broth (BBL Microbiology Systems, Cockeysville, Md.) according to standard methodology. Daptomycin susceptibility testing was performed in Mueller-Hinton broth adjusted to 50 μg/mL of calcium according to standard methodology. All strains were tested by time-kill methodology with each compound alone according to standard methods. Cultures were initiated by adding 35-μL aliquots of suspensions into 5 mL of broth. Viability counts (100-μL aliquots) in synergy tests were performed at 0, 3, 6, 12, and 24 h in a shaking water bath at 35° C. with final inocula of between 5×10^5 and 5×10^6 CFU/mL. Only plates with 30 to 300 colonies were counted.

P. aeruginosa strains [1] = assay: MIC by macrodilution
Source text: as §1
Synergy time-kill was used to test the activity of Example 1, alone and in combination with cefepime, doripenem, imipenem and piperacillin/tazobactam, against 10 P. aeruginosa strains. The 10 clinical isolates included 5 cefepime resistant, 5 doripenem resistant, 8 imipenem resistant, and 9 piperacillin/tazobactam resistant strains. MICs were determined by macrodilution and time-kill was used to verify the activity of all five agents alone. MICs were predetermined by macrodilution in cation-adjusted Mueller-Hinton broth (BBL Microbiology Systems, Cockeysville, Md.) according to standard methodology. All strains were tested by time-kill methodology with each compound alone according to standard methods. Strains were examined by PCR for genes encoding aminoglycoside modifying enzymes (AMEs). Cultures were initiated by adding 35-μL aliquots of suspensions into 5 mL of broth. Viability counts (100-μL aliquots) in synergy tests were performed at 0, 3, 6, 12, and 24 h in a shaking water bath at 35° C. with final inocula of between 5×10^5 and 5×10^6 CFU/mL. Only plates with 30 to 300 colonies were counted.

P. aeruginosa strains [2] = assay: Synergy time-kill; settings: with each drug tested, majority of isolates, 24 h
[3] = Staphylococcus aureus, ATCC 33591 / MRSA, Strain 13, ATCC33591 HA-MRSA, read-out: MIC
[4] = Staphylococcus aureus, MRSA, Strain 6, CA-MRSA, PVL+, read-out: MIC
[5] = Staphylococcus aureus, MRSA, Strain 7, CA-MRSA, PVL+, read-out: MIC
[6] = Staphylococcus aureus, MRSA, Strain 8, CA-MRSA, PVL+, read-out: MIC
[7] = Staphylococcus aureus, MRSA, Strain 14, HA-MRSA, read-out: MIC
[8] = Staphylococcus aureus, MRSA, Strain 15, HA-MRSA, read-out: MIC
[9] = Staphylococcus aureus, MRSA, Strain 16, HA-MRSA, read-out: MIC
[10] = Staphylococcus aureus, MRSA, Strain 17, HA-MRSA, read-out: MIC
[11] = Staphylococcus aureus, MRSA, Strain 18, HA-MRSA, read-out: MIC
[12] = Staphylococcus aureus, MRSA, Strain 19, HA-MRSA, read-out: MIC
[13] = Staphylococcus aureus, MRSA, Strain 20, HA-MRSA, read-out: MIC
[14] = Staphylococcus aureus, MRSA, Strain 21, HA-MRSA, read-out: MIC
[15] = Staphylococcus aureus, MRSA, Strain 22, HA-MRSA, read-out: MIC
[16] = Staphylococcus aureus, MRSA, Strain 23, CA-MRSA PVL+, read-out: MIC
[17] = Staphylococcus aureus, MRSA, Strain 24, CA-MRSA PVL+, read-out: MIC
[18] = Staphylococcus aureus, MRSA, Strain 25, CA-MRSA PVL neg, read-out: MIC
[19] = Staphylococcus aureus, Strain 9, hVISA, read-out: MIC
[20] = Staphylococcus aureus, Strain 10, hVISA, read-out: MIC
[21] = Staphylococcus aureus, VISA, Strain 11, VISA, read-out: MIC
[22] = Staphylococcus aureus, VISA, Strain 12, VISA, read-out: MIC
[23] = Staphylococcus aureus, VRSA, Strain 1, VRSA, read-out: MIC
[24] = Staphylococcus aureus, VRSA, Strain 2, VRSA, read-out: MIC
[25] = Staphylococcus aureus, VRSA, Strain 3, VRSA, read-out: MIC
[26] = Staphylococcus aureus, VRSA, Strain 4, VRSA, read-out: MIC
[27] = Staphylococcus aureus, VRSA, Strain 5, VRSA, read-out: MIC
[28] = Staphylococcus aureus, range over 25 S. aureus strains, read-out: MICs of each agent alone

With `CN[C@@H]1[C@@H](O)[C@@H](O[C@@H]2[C@@H](O)[C@H](O[C@H]3OC(CNCCO)=CC[C@H]3N)[C@@H](N)C[C@H]2NC(=O)[C@@H](O)CCN)OC[C@]1(C)O` [Example 1, 6′-(2-Hydroxy-ethyl)-1-(4-amino-2(S)-hydroxy-butyryl)-sisomicin] the MIC (S. aureus strains; Strain 1, VRSA) was 1.0 µg/mL, the MIC (S. aureus strains; Strain 2, VRSA) was 0.5 µg/mL and the MIC (S. aureus strains; Strain 3, VRSA) was 1.0 µg/mL. The MIC (S. aureus strains; Strain 4, VRSA) was 2.0 µg/mL, the MIC (S. aureus strains; Strain 5, VRSA) was 1.0 µg/mL and the MIC (S. aureus strains; Strain 6, CA-MRSA, PVL+) was 4.0 µg/mL. It also gave an MIC (S. aureus strains; Strain 7, CA-MRSA, PVL+) of 2.0 µg/mL, an MIC (S. aureus strains; Strain 8, CA-MRSA, PVL+) of 4.0 µg/mL and an MIC (S. aureus strains; Strain 9, hVISA) of 1.0 µg/mL. For the same compound, the MIC (S. aureus strains; Strain 10, hVISA) was 1.0 µg/mL, the MIC (S. aureus strains; Strain 11, VISA) was 4.0 µg/mL and the MIC (S. aureus strains; Strain 12, VISA) was 4.0 µg/mL. For the same compound, the MIC (S. aureus strains; Strain 13, ATCC33591 HA-MRSA) was 8.0 µg/mL, the MIC (S. aureus strains; Strain 14, HA-MRSA) was 2.0 µg/mL and the MIC (S. aureus strains; Strain 15, HA-MRSA) was 2.0 µg/mL. The MIC (S. aureus strains; Strain 16, HA-MRSA) was 2.0 µg/mL, the MIC (S. aureus strains; Strain 17, HA-MRSA) was 4.0 µg/mL and the MIC (S. aureus strains; Strain 18, HA-MRSA) was 2.0 µg/mL. The MIC (S. aureus strains; Strain 19, HA-MRSA) was 2.0 µg/mL, the MIC (S. aureus strains; Strain 20, HA-MRSA) was 2.0 µg/mL and the MIC (S. aureus strains; Strain 21, HA-MRSA) was 4.0 µg/mL. For the same compound, the MIC (S. aureus strains; Strain 22, HA-MRSA) was 4.0 µg/mL, the MIC (S. aureus strains; Strain 23, CA-MRSA PVL+) was 4.0 µg/mL and the MIC (S. aureus strains; Strain 24, CA-MRSA PVL+) was 4.0 µg/mL. For the same compound, the MIC (S. aureus strains; Strain 25, CA-MRSA PVL neg) was 2.0 µg/mL, the “MICs of each agent alone” value (S. aureus strains; range over 25 S. aureus strains) was 0.5 to 8 µg/mL and the “MICs for strains with genes encoding AMEs” value (P. aeruginosa strains [1]; 3 strains: 2 ant(2″)-Ia, 1 aac(6′)-Ib) was “equivalent to strains lacking AMEs”. For the same compound, the MIC (P. aeruginosa strains [1]; Strain 1) was 64 µg/mL, the MIC (P. aeruginosa strains [1]; Strain 2) was 16 µg/mL and the MIC (P. aeruginosa strains [1]; Strain 3) was 16 µg/mL. The MIC (P. aeruginosa strains [1]; Strain 4) was 16 µg/mL, the MIC (P. aeruginosa strains [1]; Strain 5) was 32 µg/mL and the MIC (P. aeruginosa strains [1]; Strain 6) was 8 µg/mL. The MIC (P. aeruginosa strains [1]; Strain 7) was 16 µg/mL, the MIC (P. aeruginosa strains [1]; Strain 8) was 16 µg/mL and the MIC (P. aeruginosa strains [1]; Strain 9) was 16 µg/mL. For the same compound, the MIC (P. aeruginosa strains [1]; Strain 10) was 32 µg/mL, the “MICs of each agent alone” value (P. aeruginosa strains [1]; range over 10 P. aeruginosa strains) was 8 to 64 µg/mL and the “Example 1 concentration yielding synergy” value (P. aeruginosa strains [2]) was “¼”.
In the case of `CC(=O)NC[C@H]1CN(c2ccc(N3CCOCC3)c(F)c2)C(=O)O1` [Linezolid, linezolid], the MIC (S. aureus strains; [3]) is reported as 2 µg/mL, the MIC (S. aureus strains; [4]) is reported as 4 µg/mL and the MIC (S. aureus strains; [5]) is reported as 4 µg/mL. For the same compound, the MIC (S. aureus strains; [6]) was 2 µg/mL, the MIC (S. aureus strains; [7]) was 4 µg/mL and the MIC (S. aureus strains; [8]) was 4 µg/mL. The MIC (S. aureus strains; [9]) was 4 µg/mL, the MIC (S. aureus strains; [10]) was 4 µg/mL and the MIC (S. aureus strains; [11]) was 4 µg/mL. For the same compound, the MIC (S. aureus strains; [12]) was 4 µg/mL, the MIC (S. aureus strains; [13]) was 4 µg/mL and the MIC (S. aureus strains; [14]) was 4 µg/mL. It also gave an MIC (S. aureus strains; [15]) of 4 µg/mL, an MIC (S. aureus strains; [16]) of 4 µg/mL and an MIC (S. aureus strains; [17]) of 4 µg/mL. The MIC (S. aureus strains; [18]) was 4 µg/mL, the MIC (S. aureus strains; [19]) was 4 µg/mL and the MIC (S. aureus strains; [20]) was 2 µg/mL. It also gave an MIC (S. aureus strains; [21]) of 2 µg/mL, an MIC (S. aureus strains; [22]) of 4 µg/mL and an MIC (S. aureus strains; [23]) of 2 µg/mL. It also gave an MIC (S. aureus strains; [24]) of 4 µg/mL, an MIC (S. aureus strains; [25]) of 2 µg/mL and an MIC (S. aureus strains; [26]) of 4 µg/mL. For the same compound, the MIC (S. aureus strains; [27]) was 2 µg/mL and the MIC (S. aureus strains; [28]) was 2 to 4 µg/mL.
`Nc1nc(/C(=N/O)C(=O)N[C@@H]2C(=O)N3C(C(=O)O)=C(/C=C4\CCN([C@@H]5CCNC5)C4=O)CS[C@H]23)ns1` [Ceftobiprole, ceftobiprole] gave an MIC (S. aureus strains; [3]) of 2 µg/mL, an MIC (S. aureus strains; [4]) of 1 µg/mL and an MIC (S. aureus strains; [5]) of 1 µg/mL. It also gave an MIC (S. aureus strains; [6]) of 1 µg/mL, an MIC (S. aureus strains; [7]) of 2 µg/mL and an MIC (S. aureus strains; [8]) of 1 µg/mL. It also gave an MIC (S. aureus strains; [9]) of 2 µg/mL, an MIC (S. aureus strains; [10]) of 2 µg/mL and an MIC (S. aureus strains; [11]) of 1 µg/mL. It also gave an MIC (S. aureus strains; [12]) of 1 µg/mL, an MIC (S. aureus strains; [13]) of 2 µg/mL and an MIC (S. aureus strains; [14]) of 1 µg/mL. For the same compound, the MIC (S. aureus strains; [15]) was 2 µg/mL, the MIC (S. aureus strains; [16]) was 1 µg/mL and the MIC (S. aureus strains; [17]) was 1 µg/mL. It also gave an MIC (S. aureus strains; [18]) of 2 µg/mL, an MIC (S. aureus strains; [19]) of 2 µg/mL and an MIC (S. aureus strains; [20]) of 2 µg/mL. The MIC (S. aureus strains; [21]) was 1 µg/mL, the MIC (S. aureus strains; [22]) was 0.5 µg/mL and the MIC (S. aureus strains; [23]) was 1 µg/mL. It also gave an MIC (S. aureus strains; [24]) of 1 µg/mL, an MIC (S. aureus strains; [25]) of 2 µg/mL and an MIC (S. aureus strains; [26]) of 2 µg/mL. For the same compound, the MIC (S. aureus strains; [27]) was 0.5 µg/mL and the MIC (S. aureus strains; [28]) was 0.5 to 2 µg/mL.
